Each structure is given as a SMILES string. Calls of active or inactive are those of the source. Some results are limits rather than exact numbers.

By EC50 is commonly meant the concentration giving half of the maximal effect. In general, IC50 refers to the concentration needed to halve the response being measured. As usually defined, the CC50 is the concentration at which the toxic effect on the cells reaches its halfway point. One may read the AC50 as the concentration giving half of the maximal activity seen.

Series [1] in a line: NIH-3T3 fibroblast cytotoxicity, dose response, cytotoxicity control, cell-based, fluorescence, Alamar Blue, secondary assay (AID 2327).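 Also: NIH-3T3 mouse fibroblasts cultured with fluconazole at 8 µg/mL.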 The class given is functional.
A short description of series [2]: C. albicans growth with fluconazole, confirmation, fluorescence, retest (AID 2467). It counts as functional, cell-based.
Series [3] is described as follows: inhibitors of firefly luciferase expression or activity, dose response, H4 neuroglioma cells, luminescence (AID 1990). The class given is functional, cell-based.
Series [4] can be described thus: Luminescence Cell-Based Dose Response HTS to Identify Inhibitors of 5'UTR Stem-Loop Driven Prion Protein mRNA Translation in H4 Neuroglioblastoma Cells. [Related pubchem assays: 1827 (Project Summary), 1813 (Primary HTS)]. It counts as functional.
Series [5] is described as follows: inhibitors of SNCA 5'UTR-driven reporter translation, confirmation, H4 neuroglioma cells, luminescence (AID 1988). It counts as functional, cell-based.
A short description of series [6]: cytotoxicity in HEK-293T cells, dose response, cytotoxicity control for TCR NF-kB inhibitor project, luminescence, T-cell screen hits (AID 489026).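 Also: cells exposed to compound about 14 hours before the viability readout.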 The class given is functional, cell-based.
Series [7] is described as follows: growth suppression of PTEN-null colon cells, dose response, cell-based, HCT116 PTEN knockout (AID 1047).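 Also: HCT116 colon tumor cells with PTEN knocked out; cells exposed to compound for 60 hours before readout; potency for loss of cell viability measured by luminescence.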 It counts as functional.
Series [8] in a line: growth suppression of beta-catenin-knockout colon cells, dose response, cell-based, HCT116, human colon tumor (AID 1045).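 Also: HCT116 colon tumor cells with beta catenin knocked out; cells exposed to compound for 60 hours.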 It counts as functional.
The next series has as its system Vero. The series is described as follows: cells. The following applies: Chlorocebus sabaeus. The class given is functional.
A further series deals with Cytochrome P450 2C19 (Homo sapiens, UniProt P33261). In words: Cytochrome panel assay with activity outcomes. Panel member name: p450-cyp2c19 Compounds with AC50 equal or less than 10 uM are considered active. The class given is functional. The following applies: read-out: AC50.
The next series deals with Cytochrome P450 2C9 (Homo sapiens, UniProt P11712).
Series [9] has as its target T1, Microphthalmia-associated transcription factor (Homo sapiens, UniProt O75030).
T1 sequence (O75030 whole entry): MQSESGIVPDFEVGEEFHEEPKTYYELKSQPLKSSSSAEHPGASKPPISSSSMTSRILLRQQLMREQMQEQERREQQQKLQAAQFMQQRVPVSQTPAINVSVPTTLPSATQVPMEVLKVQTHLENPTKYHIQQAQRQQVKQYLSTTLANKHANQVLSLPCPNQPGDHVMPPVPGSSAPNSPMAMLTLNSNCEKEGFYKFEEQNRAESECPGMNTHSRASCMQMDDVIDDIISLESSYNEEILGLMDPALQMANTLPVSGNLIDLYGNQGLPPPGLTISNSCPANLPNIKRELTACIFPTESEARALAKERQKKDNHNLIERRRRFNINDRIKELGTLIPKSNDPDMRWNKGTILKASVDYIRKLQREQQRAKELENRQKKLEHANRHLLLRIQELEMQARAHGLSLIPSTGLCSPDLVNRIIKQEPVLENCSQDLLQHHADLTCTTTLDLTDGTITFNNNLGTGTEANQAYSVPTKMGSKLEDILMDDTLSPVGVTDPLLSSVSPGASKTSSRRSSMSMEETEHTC
In words: TRPM1 promoter luciferase signal decrease, dose response, MITF inhibitor project, cell-based, SK-MEL-5, cherry-picked, set 3 (AID 493073).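 Also: SK-MEL-5 melanoma cells with luciferase driven by the MITF target TRPM1 promoter.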 The class given is functional.

Series [10] relates to Streptococcus sp. 'group A'. The series is described as follows: growth inhibition of control SK(-) GAS strain, dose response, counter-screen for streptokinase expression inhibitor project, luminescence, kanamycin, BacTiterGlo, confirmation (AID 1900). The class given is functional, organism-based. A general note: A counterscreen serves to expose hits that act by an unwanted route or on another target.

Another series has as its target T2, Streptokinase A (Streptococcus pyogenes serotype M1, UniProt P10520).
T2 sequence (P10520 whole entry): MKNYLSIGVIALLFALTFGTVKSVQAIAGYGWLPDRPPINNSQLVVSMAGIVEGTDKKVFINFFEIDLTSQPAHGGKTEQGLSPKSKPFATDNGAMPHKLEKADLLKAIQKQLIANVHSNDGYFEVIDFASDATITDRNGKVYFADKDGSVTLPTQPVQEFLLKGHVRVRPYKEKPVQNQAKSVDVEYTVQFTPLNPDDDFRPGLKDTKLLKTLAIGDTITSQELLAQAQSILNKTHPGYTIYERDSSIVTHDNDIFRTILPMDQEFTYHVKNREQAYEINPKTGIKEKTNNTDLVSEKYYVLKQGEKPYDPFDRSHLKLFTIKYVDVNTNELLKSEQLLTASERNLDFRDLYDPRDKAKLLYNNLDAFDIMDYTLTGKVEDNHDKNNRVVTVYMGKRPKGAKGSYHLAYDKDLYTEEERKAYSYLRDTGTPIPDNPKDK
The series is described as follows: S. pyogenes streptokinase expression inhibitors, potency, dose response, plasminogen activation absorbance, OD405 (AID 1914).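 Also: secreted streptokinase activity via plasminogen activation per viability signal from cell pellet.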 It counts as functional, Streptococcus pyogenes M1 GAS.

For another series, the system named is Streptococcus. In words: Group A Streptococcus viability loss, dose response, counter-screen for streptokinase expression inhibitor project, luminescence, BacTiterGlo (AID 1915).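 Also: potency for reduction of bacterial viability or growth.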 The class given is functional, organism-based.
The test system of series [11] is HEK293. In words: NOD1 signaling inhibitors, primary screen, cell-based, luminescence, uHTS (AID 1578). The class given is functional. The following applies: Homo sapiens.
For series [12], the system named is HEK293. The series is described as follows: cells. It counts as functional, cell-based. Particulars: Homo sapiens.
The subject of series [13] is HEK293. In words: cells. It counts as functional, cell-based. Particulars: Homo sapiens. The source holds these as a separate data set.
For series [14], the system named is HEK293. In words: NOD2 signaling inhibitors in MDP-stimulated cells, cell-based, uHTS, luminescence (AID 2001). The class given is functional. The following applies: Homo sapiens.
A further series addresses T3, Protein skinhead-1 (Caenorhabditis elegans, UniProt P34707).
T3 sequence (P34707 whole entry): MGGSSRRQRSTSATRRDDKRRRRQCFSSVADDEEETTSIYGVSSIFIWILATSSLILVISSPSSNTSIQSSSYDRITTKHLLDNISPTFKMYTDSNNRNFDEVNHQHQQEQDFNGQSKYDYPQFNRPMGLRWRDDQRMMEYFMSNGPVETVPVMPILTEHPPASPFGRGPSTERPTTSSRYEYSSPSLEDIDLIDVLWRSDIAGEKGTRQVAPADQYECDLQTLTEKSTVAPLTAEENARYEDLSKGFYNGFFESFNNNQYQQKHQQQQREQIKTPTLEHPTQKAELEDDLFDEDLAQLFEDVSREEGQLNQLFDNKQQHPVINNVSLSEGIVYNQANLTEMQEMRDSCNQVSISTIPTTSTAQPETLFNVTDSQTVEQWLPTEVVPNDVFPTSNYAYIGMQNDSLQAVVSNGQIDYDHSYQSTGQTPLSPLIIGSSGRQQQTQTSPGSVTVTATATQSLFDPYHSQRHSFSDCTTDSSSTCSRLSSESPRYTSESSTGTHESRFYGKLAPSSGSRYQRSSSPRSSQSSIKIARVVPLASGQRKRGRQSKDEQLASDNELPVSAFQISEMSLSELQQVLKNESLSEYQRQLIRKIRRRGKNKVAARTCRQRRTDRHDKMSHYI
It counts as functional.

Chain of Cytochrome P450 2C9 (P11712 whole entry): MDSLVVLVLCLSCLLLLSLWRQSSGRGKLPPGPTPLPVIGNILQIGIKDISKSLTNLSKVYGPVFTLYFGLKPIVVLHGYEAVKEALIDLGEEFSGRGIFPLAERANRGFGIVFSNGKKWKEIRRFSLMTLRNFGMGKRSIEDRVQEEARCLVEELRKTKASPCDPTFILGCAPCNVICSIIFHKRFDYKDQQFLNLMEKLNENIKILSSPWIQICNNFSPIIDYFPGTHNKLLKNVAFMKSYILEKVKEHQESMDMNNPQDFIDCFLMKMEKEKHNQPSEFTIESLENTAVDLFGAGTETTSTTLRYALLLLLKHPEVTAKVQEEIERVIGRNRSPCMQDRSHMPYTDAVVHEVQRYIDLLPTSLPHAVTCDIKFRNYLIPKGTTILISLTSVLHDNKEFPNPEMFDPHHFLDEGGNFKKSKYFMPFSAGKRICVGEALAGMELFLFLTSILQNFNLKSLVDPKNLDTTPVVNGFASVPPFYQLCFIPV
Chain of Cytochrome P450 2C19 (P33261 whole entry): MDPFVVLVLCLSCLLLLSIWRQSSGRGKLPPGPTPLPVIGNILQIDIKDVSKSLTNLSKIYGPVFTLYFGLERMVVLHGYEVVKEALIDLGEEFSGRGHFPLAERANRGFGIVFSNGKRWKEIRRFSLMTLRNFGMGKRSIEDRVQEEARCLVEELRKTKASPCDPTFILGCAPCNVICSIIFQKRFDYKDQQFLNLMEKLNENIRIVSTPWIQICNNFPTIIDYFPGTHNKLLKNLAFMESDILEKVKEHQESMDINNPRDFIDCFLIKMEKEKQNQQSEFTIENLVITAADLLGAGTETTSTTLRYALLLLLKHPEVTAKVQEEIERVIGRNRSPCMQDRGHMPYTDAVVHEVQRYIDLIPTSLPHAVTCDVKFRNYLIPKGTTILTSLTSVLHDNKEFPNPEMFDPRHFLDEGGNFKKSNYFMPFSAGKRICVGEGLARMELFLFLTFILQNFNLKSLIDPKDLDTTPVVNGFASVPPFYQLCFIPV

Regarding `O=C(NCc1ccccc1)C1c2ccccc2Oc2ccccc21`, the concentration for a half-maximal effect (EC50) was > 150 µM (inconclusive) in [1] and 2.43 µM (active) in series [2].

`COc1cccc(OC)c1C1=NCC(=O)Nc2c1oc1ccc(Br)cc21`: the EC50 was 0.752 µM (active) in series [3], 0.566 µM (active) in series [4] and 0.267 µM (active) in series [5]. The IC50 in series [6] was 71.8 µM (inactive).

As to `Cc1cccc(Nc2nnc(SCC(=O)NC(=O)Nc3ccc4c(c3)OCCO4)s2)c1`, the EC50 in series [7] is 13 µM (active); in series [8] it was 9.93 µM (active). Moreover, the 50% cytotoxic concentration (CC50) with Vero is > 25 µM (active).

Consider `Cc1ccc(S(C)=NS(=O)(=O)c2ccc(C)cc2)cc1` (stereo not drawn), for which the AC50 on Cytochrome P450 2C19 was 7.08 µM (inconclusive); on Cytochrome P450 2C9, “inconclusive”.

On to `Cc1ccc(NS(=O)(=O)c2ccc(CCC(=O)NCCO)cc2)cc1`, for which the results for the EC50 in series [1] and in series [2] were > 150 µM (inactive) and > 38 µM (not active), respectively.

On to `CN(Cc1ccco1)c1cc(-c2cccc(C#N)c2)ncn1`, for which the half-maximal activity concentration (AC50) entry at Cytochrome P450 2C9 is listed as “inconclusive”.

Consider `CCOc1ccccc1C1CC(=O)Nc2cc3c(cc21)OCO3` (stereo not drawn), for which, in series [6], the IC50 was > 80 µM (inactive).

As for `O=C(C=Cc1ccccn1)c1ccccc1`, the CC50 in the series on Vero was 9.58 µM (active).

As for `O=C(CC1(O)C(=O)N(Cc2cccc3ccccc23)c2ccccc21)c1cccnc1` (stereo not drawn), in the series with Vero, the CC50 was > 25 µM (active).

`N=c1n(CC(=O)c2ccc([N+](=O)[O-])cc2)c2ccccc2n1Cc1ccccc1Cl`: in series [9], the AC50 was 4.03 µM (active).

In the case of `CC(=O)Nc1ccc(C#Cc2ccc(NC(C)=O)cc2)cc1`, the EC50 in series [3] is 16.5 µM (active); in series [10], 0.953 µM (active); in series [4] it was 10.5 µM (active); in series [5], 8.38 µM (active); at Streptokinase A, > 150 µM (not active); in the series on Streptococcus, 9.38 µM (active). Moreover, the concentration at half-maximal activity (AC50) on Cytochrome P450 2C19 was 0.00631 µM (inconclusive); at Cytochrome P450 2C9 it was “inconclusive”.

Take `O=C(NC1C2CC3CC(C2)CC1C3)c1ccc(N2CCNCC2)c([N+](=O)[O-])c1` (stereo not drawn): in the series on Vero, the CC50 is > 25 µM (active).

Consider `O=c1c2ccccc2nc(-c2ccc(Cl)cc2Cl)n1O`, for which the values for the EC50 in series [1] and in series [2] were > 160 µM (inactive) and 2.06 µM (active), respectively.

`CCc1ccccc1NC(=O)c1ccc(-n2c(C)ccc2C)cc1`: the AC50 entry on Cytochrome P450 2C9 is “inconclusive”.

Turning to `Cc1cccc(CNc2cc(-c3cccc(NS(C)(=O)=O)c3)ncn2)c1`, the AC50 result at Cytochrome P450 2C9 was “inconclusive”.

Regarding `COc1ccc([C@H]2CC(=O)C=C(c3c(OC)cccc3OC)C2)cc1`, the IC50 in [6] is > 80 µM (inactive).

As for `Cc1ccc(C)c(SCC(=O)Nc2nnc(-c3ccccc3)o2)c1`, the EC50 in series [1] was > 150 µM (inactive); in series [2], 2.1 µM (active).

On to `Cn1c(O)c(N=NC(S)=Nc2ccccc2F)c2cc(S(=O)(=O)N3CCOCC3)ccc21`, for which the EC50 was > 20 µM (inactive) in the series with HEK293 [11], 7.47 µM (active) in series [10], > 150 µM (not active) on Streptokinase A and 44.2 µM (active) in the series with Streptococcus. The values for the half-inhibitory concentration (IC50) in the series with HEK293 [12], in the series with HEK293 [13] and in the series on HEK293 [14] were 19.1 µM (active), > 20 µM (inactive) and 9.77 µM (active), respectively.

Consider `Cc1ccc(C2CC(C(F)(F)F)n3nc(C(=O)NCc4c(C)nn(C)c4C)c(Cl)c3N2)cc1` (stereo not drawn), for which the AC50 in series [9] is 8.89 µM (active). Also, the IC50 on Protein skinhead-1 is > 100 µM (inactive).

Values taken from ChEMBL document CHEMBL1201862, “PubChem BioAssay data set” (2004).
